Experimental findings from patent US20150306107A1, “SAA Derivative Compound Restores eNOS And Inhibits Oxidative Stress-Induced A Diseases In Hypoxia” (JANSFAT BIOTECHNOLOGY CO., LTD., priority 2014, published 2015) are described below.

Assay [1] relates to PDE5A. The conditions noted are these: hypoxia 21 days; % of the normal level; hypoxia 43.8±12.6%.
Assay [2] relates to NOx in lung tissue. The conditions noted are these: 21 days of hypoxia; control group 100%, hypoxia 59.8±3.7%.
Procedure: All the rats were maintained on a 12-h light/12-hr dark cycle at 25±1° C. and were provided with food and water ad libitum. The normoxia group was housed in standard normoxic conditions and the other three treated groups were continuously housed in a hypoxic chamber (10% O2) for 21 days, except for a 30-min interval each day when the chamber was cleaned (FIG. 2). During which, a normoxic gas mixture was prepared from compressed air.
Production of NO, represented by its metabolite nitrate+nitrite (NOx), in lung tissue extracts was determined using the Griess method (Chung H H et al, Br J Pharmacol 160: 971, 2010; Vascular Pharmacology 53: 239, 2010). The three step Greiss test converts nitrate (NO3^−) into nitrite (NO2^−), resulting in a total NO2^− concentration from a standard calibration curve. The lung tissue extracts were homogenized, washed with PBS and incubated in a lysis buffer in addition to a protease inhibitor cocktail (Sigma, St. Louis, Mo.) to obtain the extracts of lung proteins. […] The samples were then incubated (25° C, 10 min) with Griess reagent [N-(1-naphthyl)-ethylenediamine: 0.2% (w/v), sulphanilamide: 2% (w/v), solubilized in double-distilled water: 95% and phosphoric acid: 5% (v/v)] and the absorbance measured at 540 nm. […]
Assay [3] concerns ROCK II. Nature of the assay: Western blotting of ROCK II expression in isolated rat pulmonary artery ring, short-term (acute) hypoxia or normoxia. Type of assay: cell-based. On the procedure: (§1) In our in vitro short-term experiment, isolated rat pulmonary artery was grown under normoxia (20% O2) or hypoxia (1% O2) at 37° C. for 24 hrs as was previously done (Wu BN, et al. Int J Immunopathol Pharmacol 24:925, 2011). The heart weight and body weight ratio (HW/BW) of the rats treated with one of SPAAX-1, SPAAX-1 RX complex, Sildenafil or Sildenafil RX complex each measured on the 21st hypoxic day. All animal care and the experimental protocols of this study were approved by the Animal Care and Use Committee of the Kaohsiung Medical University. Male Wistar rats (200-250 g), provided by the National Laboratory Animal Breeding and Research Center (Taipei, Taiwan), were housed under constant temperature and controlled illumination. Food and water were available ad libitum.
(§2) Whole right lung tissues of hypoxia-treated and untreated rats were isolated and cut into small strips and placed into an extraction buffer (Tris 10 mM, pH 7.0, NaCl 140 mM, PMSF 2 mM, DTT 5 mM, NP-40 0.5%, pepstatin A 0.05 mM and leupeptin 0.2 mM) for protein extraction, and then centrifuged at 12,500 g for 30 min. To measure the expression levels of the proteins, the total proteins were extracted and Western blotting analysis was performed as described previously (Bivalacqua T J, et al., 2013, TJ PLoSONE 8: e68028. doi:10.1371/journal. pone.0068028). Briefly, the protein extract was boiled to a ratio of 4:1 with a sample buffer (Tris 100 mM, pH 6.8, glycerol 20%, SDS 4% and bromophenol blue 0.2%). Electrophoresis was performed using 10% SDS-polyacrylamide gel (2 hr, 100 V, 40 mA, […] protein per lane). Separated proteins were transferred to PVDF membranes treated with 5% fat-free milk powder to block the nonspecific IgGs (90 min, 100 V) and incubated for one hour with a specific protein antibody. The blot was then incubated with anti-mouse or anti-goat IgG linked to alkaline phosphatase (1:1000) for 1 hr. Immunoreactive bands were visualized using horseradish peroxidase-conjugated secondary antibodies and subsequent electrochemiluminescence (ECL) detection (GE Healthcare Bio-Sciences Corp., Piscataway, N.J., U.S.A.). Mouse or rabbit monoclonal antibody of eNOS (Upstate, N.Y., U.S.A.), sGCα (Sigma-Adrich, CA, U.S.A., sGCβ (Santa Cruz, Calif., U.S.A.), PDE-5A (BD Tansduction, San Jose, Calif., U.S.A.), PKG (Calbiochem, San Diego, Calif., U.S.A.) ROCKII (Upstate, N.Y., U.S.A.), RhoA (Santa Cruze, Calif., U.S.A.) and the loading control protein β-actin (Sigma-Adrich, MO, U.S.A.) were used in our Western blot analysis.
The Western blotting analysis measurements were performed as per lung tissue.

For assay [4], the system named is hypoxic rats. Nature of the assay: Right ventricular hypertrophy (RV/LV+S, right heart index) after long-term hypoxia. Type of assay: in vivo, rat. The procedure:
The right lobes of the rat lungs and heart of six rats from each group were cut and soaked in formalin, dehydrated through graded alcohols, and embedded in paraffin wax. The lung tissue specimens fixed with formalin (4%) were embedded in paraffin for one hour at 4° C., cut into 4-μm-thick sections, and subjected to H&E staining before examination by light microscope. In our histopathological study, we measured the thickening of the medial wall of the small intrapulmonary arteries under an Eclipse TE2000-S (Nikon) microscope. In the heart tissues, the 4-μm-thick paraffin sections were cut from paraffin-embedded tissue blocks and de-paraffinized by immersion in xylene and rehydrated as previously described (Bivalacqua T J, et al., PLoSONE 8: e68028. doi:10.1371/journal. pone.0068028). The slices were then dyed with H&E. After gently rinsing with water, each slide was dehydrated through graded alcohols and finally soaked in xylene twice. The relative cardiac weight of right ventricle (RV)/[left ventricle (LV)+intraventricular septum (S)] ratio (i.e. right heart index) was calculated using right ventricle/left ventricle+septum (RV/LV+S). Measurements were obtained with Histolab software (Microvision Instruments, Evry, France).

Assay [5] has as its system PKG. Nature of the assay: Western blotting of PKG in lung tissue after long-term hypoxia. It is filed as in vivo, rat. The conditions noted are these: hypoxia 21 days. On the procedure: as §2, with “Mouse or rabbit monoclonal antibody of eNOS (Upstate, N.Y., U.S.A.), sGCα (Sigma-Adrich, CA, U.S.A., sGCβ (Santa Cruz, Calif., U.S.A.), PDE-5A (BD Tansduction, San Jose, Calif., U.S.A.), PKG (Calbiochem, San Diego, Calif., U.S.A.) ROCKII (Upstate, N.Y., U.S.A.), RhoA (Santa Cruze, Calif., U.S.A.) and the loading control protein β-actin (Sigma-Adrich, MO, U.S.A.) were used in our Western blot analysis.” left out
In general terms: A western blot detects proteins with antibodies after separation by electrophoresis.

Assay [6] has as its system VEGF. Nature of the assay: Western blotting of VEGF expression in isolated rat pulmonary artery ring, short-term (acute) hypoxia. It is filed as cell-based. The conditions noted are these: isolated pulmonary artery. An outline of the steps: (§3)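 Isolated rat (male Wistar) pulmonary artery kept under normoxia (20% O2) or hypoxia (1% O2) at 37° C. for 24 hrs. Protein extracted, resolved on 10% SDS-PAGE ([…]), blotted to PVDF, probed with specific antibodies and ECL-detected, β-actin as loading control.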

The test system of assay [7] is VEGF. Nature of the assay: Immunohistochemistry of VEGF in pulmonary artery wall after long-term hypoxia. It is filed as in vivo, rat. On the procedure:
For histological analysis, the rat pulmonary right lung sections or pulmonary artery were fixed in 4% formaldehyde for 1 hour at 4° C. After washing with phosphate buffer saline (PBS), they were sent for paraffin-embedded serial-sections. Serial cross-sections 7 μm thick were obtained from the cross-section of each pulmonary artery. Tissue sections were deparaffinized and rehydrated in an ethanol series. After tissue rehydration, endogenous peroxidase activity was quenched with 3% hydrogen peroxide for 30 minutes, and the sections were gently washed in PBS. Non-specific binding was blocked by incubation with 1% nonimmune bovine serum albumin (BSA) in PBS for 30 minutes at room temperature.
The tissue sections were incubated for 1 hour at room temperature with antibody against VEGF (ab1442, Millipore) or against eNOS (ab5589, Abcam) diluted 1:200 in PBS with 1% BSA. After being washed with PBS, the sections were incubated for 1 hour at room temperature with biotinylated goat antibody against rabbit (Dako, E-0432) and diluted 1:200 in PBS for 30 minutes at room temperature. The reaction was visualized by the addition of 3-3-diaminobenzidine (DAB) in a working solution of DAB substrate kit for peroxidase (vector lab, SK-4100) at room temperature for 5 minutes. The sections were washed in PBS for 10 minutes between each step, and counterstained with haematoxylin. […]

Assay [8] concerns eNOS. Nature of the assay: Western blotting of eNOS expression in isolated rat pulmonary artery ring, short-term (acute) hypoxia or normoxia. Type of assay: cell-based. An outline of the steps:
as §3

Assay [9] has as its system eNOS. Nature of the assay: Western blotting of eNOS in lung tissue after long-term hypoxia. The conditions noted are these: hypoxia 21 days; compared to normoxia control. It is filed as in vivo, rat.
In assay [10] the test system is sGCα1. Nature of the assay: Western blotting of sGCα1 expression in isolated pulmonary artery, short-term hypoxia. It is filed as cell-based, rat. On the procedure: as §1
Whole right lung tissues of hypoxia-treated and untreated rats were isolated and cut into small strips and placed into an extraction buffer (Tris 10 mM, pH 7.0, NaCl 140 mM, PMSF 2 mM, DTT 5 mM, NP-40 0.5%, pepstatin A 0.05 mM and leupeptin 0.2 mM) for protein extraction, and then centrifuged at 12,500 g for 30 min. To measure the expression levels of the proteins, the total proteins were extracted and Western blotting analysis was performed as described previously (Bivalacqua T J, et al., 2013, TJ PLoSONE 8: e68028. doi:10.1371/journal. pone.0068028). […]

Assay [11] deals with VEGF. Nature of the assay: Western blotting of VEGF in lung tissue after long-term hypoxia. Type of assay: in vivo, rat. The conditions noted are these: hypoxia 21 days; hypoxia 168.9±24.6%.
Assay [12] has as its system ROCK II. Nature of the assay: Western blotting of ROCK II in lung tissue after long-term hypoxia. It is filed as in vivo, rat. The conditions noted are these: hypoxia 21 days; hypoxia 144.7±12.6%.
Setting [13] is: normoxia for 24 hrs, 10 μm, versus non-treated controls.

On to `Cn1c(=O)c2c(ncn2CCN2CCN(c3ccccc3Cl)CC2)n(C)c1=O.O=C1O[C@H]([C@@H](O)CO)C(O)=C1O` [SPAAX-1 ascorbate complex, 7-[2-[4-(2-chlorobenzene)piperazinyl]ethyl]-1,3-dimethylxanthine.ascorbic acid], for which the “PDE5A expression in lung tissue” value in [1] is given as 76.9±4.9%. For the same compound, the “levels of NOx in lung tissue” value in assay [2] came out at 86.3±17.3%. Also, the “expression of ROCK II in isolated hypoxic pulmonary artery” value in [3] (hypoxia for 24 hrs, versus control level in normoxia, hypoxia 180±10.2%) amounted to 140±9.0%. The “Expression of ROCK II in isolated pulmonary artery ring” value in assay [3] (setting [13]) stood at 48.2±5.5%. For the same compound, the “thickness of Right ventricular” value in assay [4] (compared to the hypoxia state) is recorded as “reduced”. For the same compound, the “right heart index, RV/(LV+S) weight ratio” value in [4] (hypoxia 21 days, relative to normoxia rats, hypoxia 184.6±0.7%) worked out at 117.4±2.6%. Besides, in assay [5], the “PKG expression in lung tissue” value was determined as 85.0±12.9%. In addition, the “VEGF in acute hypoxia” value in assay [6] is reported as “inhibited”. In addition, the “VEGF immunostaining reactivity of pulmonary artery” value in assay [7] is on record as “reduced”. Further, the “eNOS in isolated hypoxic pulmonary artery” value in assay [8] (hypoxia for 24 hrs, versus control level in normoxia, hypoxia 60±8.3%) was 45±3.0%. Moreover, in assay [8] (isolated pulmonary artery, acute hypoxia), the “eNOS in acute hypoxia” value is reported as “restored”. Also, the “expression of eNOS in isolated pulmonary artery ring” value in assay [8] (setting [13]) worked out at 117.9±9.1%. For the same compound, in assay [9], the “eNOS expression in lung tissue” value stood at 139.7±16.9%. Besides, the SGC-a in hypoxia result in assay [10] is recorded as “neither SPAAX-1 ascorbate complex nor Sildenafil ascorbate complex significantly affected”. Besides, the “VEGF expression in lung tissue” value in assay [11] was 120.9±22.2%. Also, the “ROCKII expression in lung tissue” value in assay [12] turned out to be 50.32±7.9%.
